In experiment [1] the test system is mixed CSPGs (aggrecan, neurocan, phosphacan and versican). Nature of the experiment: CSPG-ECM binding assay, mixed CSPGs.
Procedure: (§1) To determine the interaction of insulin with CSPG-ECM components in vitro, flat-bottom 96-well plates were first coated with 10 μg/ml poly-L-lysine overnight, followed by a rinsing with water. A purified CSPGs mix containing neurocan, phosphacan, versican and aggrecan (CC117, Merck Millipore, MA), purified aggrecan (A1960, Merck Millipore, MA) or purified chondroitin 4-sulfate (59004, Selleck Chemicals, TX), were coated onto the 96-well plates at a concentration of 10 μg/ml for 4 h at RT, followed by a rinse with water. Insulin-FITC was incubated on plates containing ECM at concentrating ranging from 5 ng/ml-1 mg/ml for 2 h at RT and protected from light. Control wells contained either no ECM, bovine serum albumin (10 μg/ml) or poly-L-lysine alone. Wells were washed 3 times with water and imaged at 495 nm using a SPECTROstar Nano Microplate Reader (BMG Labtech, Germany). To digest CSPG-ECM or to negate CSPG-ECM negative charge. wells were incubated with either chABC (0.5 U/ml) or poly-1-arginine (10 μg/ml, P7762, Merck Millipore, MA) for 1 h at 37° C. after the ECM coating, washed 3 times with water and then incubated with insulin-FITC.
The next experiment has as its target T1, aggrecan (Bos taurus, UniProt P13608).
T1 construct: purchased Merck Millipore A1960
Nature of the experiment: CSPG-ECM binding assay, aggrecan. Conditions: plates coated with aggrecan, 2-hours.

The next experiment concerns chondroitin 4-sulfate. The experiment is described as follows: CSPG-ECM binding assay, chondroitin 4-sulfate. Conditions: plates coated with chondroitin 4-sulfate (C4S), 2-hours.

T1 sequence (P13608 17-2364): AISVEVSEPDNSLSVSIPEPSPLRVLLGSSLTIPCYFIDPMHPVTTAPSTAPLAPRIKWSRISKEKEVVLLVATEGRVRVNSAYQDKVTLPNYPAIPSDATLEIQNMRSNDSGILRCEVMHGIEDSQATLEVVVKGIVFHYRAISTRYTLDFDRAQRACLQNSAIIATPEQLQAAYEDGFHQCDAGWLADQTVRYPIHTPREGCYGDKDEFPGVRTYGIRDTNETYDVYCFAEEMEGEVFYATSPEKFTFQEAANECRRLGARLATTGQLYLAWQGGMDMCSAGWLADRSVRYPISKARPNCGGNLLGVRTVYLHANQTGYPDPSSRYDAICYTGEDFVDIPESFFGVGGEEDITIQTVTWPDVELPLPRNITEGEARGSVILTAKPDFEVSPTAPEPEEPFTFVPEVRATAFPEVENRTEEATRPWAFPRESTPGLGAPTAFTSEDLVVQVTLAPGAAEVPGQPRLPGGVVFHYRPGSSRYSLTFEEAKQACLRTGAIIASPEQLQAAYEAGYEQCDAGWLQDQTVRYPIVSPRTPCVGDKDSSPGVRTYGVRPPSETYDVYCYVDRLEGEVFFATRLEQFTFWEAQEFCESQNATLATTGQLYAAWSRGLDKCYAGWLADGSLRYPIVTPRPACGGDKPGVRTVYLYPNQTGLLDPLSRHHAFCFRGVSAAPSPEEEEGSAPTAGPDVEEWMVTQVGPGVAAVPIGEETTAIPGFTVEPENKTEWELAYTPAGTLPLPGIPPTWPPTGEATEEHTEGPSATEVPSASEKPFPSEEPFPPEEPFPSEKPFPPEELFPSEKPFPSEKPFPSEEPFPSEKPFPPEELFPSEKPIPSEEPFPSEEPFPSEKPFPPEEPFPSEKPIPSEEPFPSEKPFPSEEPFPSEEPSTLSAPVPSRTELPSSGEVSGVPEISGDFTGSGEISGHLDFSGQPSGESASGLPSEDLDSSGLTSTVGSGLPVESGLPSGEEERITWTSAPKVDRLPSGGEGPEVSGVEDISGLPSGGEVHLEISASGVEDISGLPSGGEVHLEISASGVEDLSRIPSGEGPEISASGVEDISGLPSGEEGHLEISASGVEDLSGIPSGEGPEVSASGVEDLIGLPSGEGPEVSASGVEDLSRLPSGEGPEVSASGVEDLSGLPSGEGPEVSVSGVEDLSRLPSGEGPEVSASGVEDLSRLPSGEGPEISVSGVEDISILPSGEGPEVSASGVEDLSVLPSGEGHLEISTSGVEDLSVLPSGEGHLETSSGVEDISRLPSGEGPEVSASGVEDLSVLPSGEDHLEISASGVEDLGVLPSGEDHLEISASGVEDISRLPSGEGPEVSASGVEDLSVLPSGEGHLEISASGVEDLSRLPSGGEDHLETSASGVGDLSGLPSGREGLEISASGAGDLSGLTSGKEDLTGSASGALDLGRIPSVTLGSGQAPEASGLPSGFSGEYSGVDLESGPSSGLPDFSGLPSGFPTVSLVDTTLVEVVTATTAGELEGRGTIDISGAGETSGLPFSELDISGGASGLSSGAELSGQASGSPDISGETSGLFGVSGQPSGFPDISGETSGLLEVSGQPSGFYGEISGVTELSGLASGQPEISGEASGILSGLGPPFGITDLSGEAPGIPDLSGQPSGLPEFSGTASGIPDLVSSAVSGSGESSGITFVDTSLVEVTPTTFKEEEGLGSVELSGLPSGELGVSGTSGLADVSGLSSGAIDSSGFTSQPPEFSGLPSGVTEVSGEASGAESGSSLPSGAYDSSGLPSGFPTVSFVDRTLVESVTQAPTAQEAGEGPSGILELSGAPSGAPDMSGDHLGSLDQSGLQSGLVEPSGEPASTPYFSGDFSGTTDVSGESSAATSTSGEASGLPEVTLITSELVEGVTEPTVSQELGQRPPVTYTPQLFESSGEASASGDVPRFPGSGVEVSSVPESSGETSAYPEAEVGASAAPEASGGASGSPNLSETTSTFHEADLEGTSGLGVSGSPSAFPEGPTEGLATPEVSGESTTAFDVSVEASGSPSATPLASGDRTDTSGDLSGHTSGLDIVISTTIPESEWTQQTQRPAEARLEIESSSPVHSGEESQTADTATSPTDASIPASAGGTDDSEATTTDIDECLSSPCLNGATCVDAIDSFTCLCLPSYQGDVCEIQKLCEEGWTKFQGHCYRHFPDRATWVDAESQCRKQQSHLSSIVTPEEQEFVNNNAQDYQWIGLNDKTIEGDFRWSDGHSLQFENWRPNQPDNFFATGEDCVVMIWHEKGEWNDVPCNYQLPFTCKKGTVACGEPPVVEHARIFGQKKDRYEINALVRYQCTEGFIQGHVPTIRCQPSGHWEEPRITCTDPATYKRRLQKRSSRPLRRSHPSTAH
Procedure for chondroitin 4-sulfate: as §1

For the substance “insulin-FITC: fluorescein isothiocyanate tagged insulin”, the “binding of insulin-FITC” value is listed as “specific dose-dependent binding” in experiment [1] (plates coated with mixed CSPGs, 2-hours); “specific dose-dependent binding” in the experiment with aggrecan; “specific dose-dependent binding” with chondroitin 4-sulfate.
With poly-arginine, in experiment [1] (CSPG mix, in the presence of poly-arginine), the insulin-ECM interactions result is on record as “significantly reduced”.

The values above are taken from US20260191933A1, “PHARMACEUTICAL COMBINATIONS AND USES THEREOF” (The University of Melbourne, priority 2022, published 2026).
